ChEMBL document CHEMBL2016509, “Design, synthesis and cytotoxic activities of novel hybrid compounds between 2-phenylbenzofuran and imidazole” (Bioorg Med Chem Lett, 2012)
pIC50: −log10 of the molar value.

How the values were obtained:
[1] = tested on: SMMC-7721; assay: Cytotoxicity against human SMMC7721 cells after 48 hrs by MTT assay; assay type: functional, cell-based; conditions: SMMC-7721, 48 h
[2] = tested on: A549; assay: Cytotoxicity against human A549 cells after 48 hrs by MTT assay; assay type: functional, cell-based; conditions: A549, 48 h
[3] = tested on: MCF7; assay: Cytotoxicity against human MCF7 cells after 48 hrs by MTT assay; assay type: functional, cell-based; conditions: MCF7, 48 h
[4] = tested on: HL-60; assay: Cytotoxicity against human HL60 cells after 48 hrs by MTT assay; assay type: functional, cell-based; conditions: HL-60, 48 h
[5] = tested on: SW480; assay: Cytotoxicity against human SW480 cells after 48 hrs by MTT assay; assay type: functional, cell-based; conditions: SW480, 48 h
[6] = tested on: SMMC-7721; assay: Ratio of DDP IC50 to compound IC50 for human SMMC7721 cells; assay type: functional

| SMILES | pIC50 [1] | pIC50 [2] | pIC50 [3] | pIC50 [4] | pIC50 [5] | Ratio IC50 [6] |
| --- | --- | --- | --- | --- | --- | --- |
| c1ccc2oc(-c3ccc(-n4ccnc4)cc3)cc2c1 | < 4.40 | < 4.40 | < 4.40 | < 4.40 | < 4.40 |  |
| c1ccc(C[n+]2ccn(-c3ccc(-c4cc5ccccc5o4)cc3)c2)cc1 | 4.82 | 4.60 | 4.57 | 5.27 | 4.70 |  |
| Brc1ccccc1C[n+]1ccn(-c2ccc(-c3cc4ccccc4o3)cc2)c1 | 5.36 | 5.01 | 4.84 | 5.71 | 4.90 |  |
| C=CC[n+]1ccn(-c2ccc(-c3cc4ccccc4o3)cc2)c1 | 4.57 | 4.48 | 4.86 | 4.84 | < 4.40 |  |
| CCCC[n+]1ccn(-c2ccc(-c3cc4ccccc4o3)cc2)c1 | 4.90 | 4.66 | 4.50 | 4.93 | < 4.40 |  |
| O=C(C[n+]1ccn(-c2ccc(-c3cc4ccccc4o3)cc2)c1)c1ccccc1 | 5.43 | 4.89 | 4.92 | 5.58 | 4.99 |  |
| O=C(C[n+]1ccn(-c2ccc(-c3cc4ccccc4o3)cc2)c1)c1ccc(O)cc1 | < 4.40 | < 4.40 | < 4.40 | < 4.40 | < 4.40 |  |
| COc1ccc(C(=O)C[n+]2ccn(-c3ccc(-c4cc5ccccc5o4)cc3)c2)cc1 | 5.43 | 5.01 | 4.95 | 5.65 | 5.16 |  |
| O=C(C[n+]1ccn(-c2ccc(-c3cc4ccccc4o3)cc2)c1)c1ccc(F)cc1 | 4.87 | 4.71 | 4.78 | 4.91 | 4.78 |  |
| O=C(C[n+]1ccn(-c2ccc(-c3cc4ccccc4o3)cc2)c1)c1ccc(Br)cc1 | 5.47 | 5.07 | 5.55 | 5.50 | 5.55 |  |
| O=C(C[n+]1ccn(-c2ccc(-c3cc4ccccc4o3)cc2)c1)c1ccc2ccccc2c1.[Br-] | 5.78 | 4.96 | 5.23 | 5.60 | 5.47 | 5.4 |
| O=C(c1ccccc1)C(c1ccccc1)[n+]1ccn(-c2ccc(-c3cc4ccccc4o3)cc2)c1 (stereo unspecified) | 5.48 | 5.17 | 5.16 | 5.57 | 5.16 |  |
